Laboratory results published in US8075562B2, “Controlled release of biopharmaceutical growth factors from hydroxyapatite coating on bioresorbable interference screws used in cruciate ligament reconstruction surgery” (Wisconsin Alumni Research Foundation, priority 2007, dated 2011).
Entries after “also recorded” stand apart in the source; their conditions may differ. Read-outs that look alike come from different tables or passages of the source.

Key:
[1] = Binding of engineered BMP-2 peptide to hydroxyapatite in solution; conditions: preliminary results
From the text: Binding growth factors to calcium phosphate minerals. Characterization of binding of engineered bone morphogenetic protein-2 peptide (eBMP-2) to CaP mineral materials is characterized. […] (See, FIGS. 10 and 11). […] (See, FIGS. 12 and 13). […] BMP-2 will be used because it has a high intrinsic affinity for CaP minerals.

mesenchymal stem cells = assay: Stem cell-based bioactivity assay (alkaline phosphatase upregulation, osteogenic differentiation)

In the case of “KIPKA SSVPT ELSAI STLYL (KIPKASSVPTELSAISTLYL) [eBMP-2, engineered bone morphogenetic protein-2 peptide; hBMP-2: 73-92 (C78, 79S, M89T)]”, the “binding to hydroxyapatite in solution” value [1] is reported as “forms strong ionic bonds to hydroxyapatite; also recorded: binds to the hydroxyapatite mineral in solution”, the “osteogenic differentiation / alkaline phosphatase upregulation” value (mesenchymal stem cells) is reported as “biologically active” and the “osteogenic differentiation / alkaline phosphatase upregulation” value (mesenchymal stem cells; listed as e-BMP-2) is reported as “promotes osteogenic differentiation”.
